The record followed here is patent US10168342B2, “Lipid probes and uses thereof” (THE SCRIPPS RESEARCH INSTITUTE, priority 2015, dated 2019).

Holding throughout (assay): In situ competitive SILAC profiling with A-DA probe in (PMA-stimulated) A549 cells
Conditions in all cases: A549 cells, A-DA probe

Experiment [1] deals with A-DA lipid probe targets in A549 cells (Homo sapiens, UniProt Q9Y639).
Experiment [2] deals with T1, A-DA lipid probe targets in A549 cells (Homo sapiens, UniProt P35354).
T1 sequence (P35354 18-604): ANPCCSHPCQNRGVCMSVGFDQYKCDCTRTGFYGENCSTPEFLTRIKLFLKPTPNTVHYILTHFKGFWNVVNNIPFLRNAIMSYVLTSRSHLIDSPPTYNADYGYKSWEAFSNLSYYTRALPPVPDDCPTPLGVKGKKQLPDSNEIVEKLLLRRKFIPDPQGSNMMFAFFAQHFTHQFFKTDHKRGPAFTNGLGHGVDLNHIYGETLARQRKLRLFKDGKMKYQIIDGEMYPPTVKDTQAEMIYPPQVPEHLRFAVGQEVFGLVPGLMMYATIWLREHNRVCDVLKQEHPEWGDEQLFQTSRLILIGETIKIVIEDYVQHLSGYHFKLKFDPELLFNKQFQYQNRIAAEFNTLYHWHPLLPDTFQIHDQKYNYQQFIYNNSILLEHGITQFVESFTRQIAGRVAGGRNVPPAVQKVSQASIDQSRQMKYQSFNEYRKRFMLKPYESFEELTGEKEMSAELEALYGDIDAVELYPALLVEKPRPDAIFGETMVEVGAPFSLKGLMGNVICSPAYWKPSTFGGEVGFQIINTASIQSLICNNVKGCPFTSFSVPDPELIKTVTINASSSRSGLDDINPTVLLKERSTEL

The target in experiment [3] is T2, A-DA lipid probe targets in A549 cells (Homo sapiens, UniProt Q6P1A2).
T2 sequence (Q6P1A2 1-487): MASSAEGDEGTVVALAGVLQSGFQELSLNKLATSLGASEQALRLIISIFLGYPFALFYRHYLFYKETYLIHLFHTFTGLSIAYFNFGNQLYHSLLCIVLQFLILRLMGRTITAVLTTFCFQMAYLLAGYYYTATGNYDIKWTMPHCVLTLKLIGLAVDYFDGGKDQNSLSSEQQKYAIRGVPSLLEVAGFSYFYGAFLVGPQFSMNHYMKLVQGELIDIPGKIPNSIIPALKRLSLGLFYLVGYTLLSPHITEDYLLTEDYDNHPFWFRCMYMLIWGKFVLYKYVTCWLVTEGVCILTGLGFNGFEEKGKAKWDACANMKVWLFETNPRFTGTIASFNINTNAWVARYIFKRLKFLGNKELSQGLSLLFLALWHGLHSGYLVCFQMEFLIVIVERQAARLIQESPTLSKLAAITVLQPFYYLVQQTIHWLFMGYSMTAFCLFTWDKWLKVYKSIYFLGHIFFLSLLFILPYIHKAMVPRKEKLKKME

The target of experiment [4] is T3, A-DA lipid probe targets in A549 cells (Homo sapiens, UniProt P67812).
T3 sequence (P67812 1-179): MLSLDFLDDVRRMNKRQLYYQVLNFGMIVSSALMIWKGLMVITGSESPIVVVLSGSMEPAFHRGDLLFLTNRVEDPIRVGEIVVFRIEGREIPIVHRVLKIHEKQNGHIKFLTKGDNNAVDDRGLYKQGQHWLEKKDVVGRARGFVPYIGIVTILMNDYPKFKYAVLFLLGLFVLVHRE

For experiment [5], the target named is T4, A-DA lipid probe targets in A549 cells (Homo sapiens, UniProt Q7Z2K6).
T4 sequence (Q7Z2K6 1-904): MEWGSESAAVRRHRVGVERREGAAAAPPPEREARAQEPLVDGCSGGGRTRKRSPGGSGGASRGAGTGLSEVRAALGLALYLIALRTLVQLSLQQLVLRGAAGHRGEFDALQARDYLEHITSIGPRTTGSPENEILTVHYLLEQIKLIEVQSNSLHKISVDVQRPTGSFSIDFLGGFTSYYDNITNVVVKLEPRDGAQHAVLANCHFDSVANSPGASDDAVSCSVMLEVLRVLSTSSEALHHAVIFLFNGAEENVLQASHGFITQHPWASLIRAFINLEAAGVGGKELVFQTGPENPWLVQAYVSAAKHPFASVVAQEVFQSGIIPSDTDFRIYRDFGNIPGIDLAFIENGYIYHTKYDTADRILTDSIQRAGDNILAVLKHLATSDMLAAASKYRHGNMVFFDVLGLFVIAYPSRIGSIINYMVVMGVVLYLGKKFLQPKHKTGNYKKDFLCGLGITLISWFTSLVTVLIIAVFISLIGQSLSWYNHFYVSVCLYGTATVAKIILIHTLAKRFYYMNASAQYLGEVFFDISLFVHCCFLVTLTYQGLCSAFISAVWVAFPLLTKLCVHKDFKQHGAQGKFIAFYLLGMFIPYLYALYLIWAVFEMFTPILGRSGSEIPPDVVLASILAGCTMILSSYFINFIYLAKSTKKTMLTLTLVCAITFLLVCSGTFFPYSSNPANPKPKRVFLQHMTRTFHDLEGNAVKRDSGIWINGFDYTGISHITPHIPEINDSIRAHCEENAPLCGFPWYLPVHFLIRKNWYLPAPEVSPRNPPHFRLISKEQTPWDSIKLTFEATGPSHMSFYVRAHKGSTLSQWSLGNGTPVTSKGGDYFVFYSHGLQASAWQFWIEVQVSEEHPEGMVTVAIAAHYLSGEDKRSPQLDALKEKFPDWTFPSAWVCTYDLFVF

Chain of A-DA lipid probe targets in A549 cells (Homo sapiens, UniProt Q9Y639) (Q9Y639 29-398): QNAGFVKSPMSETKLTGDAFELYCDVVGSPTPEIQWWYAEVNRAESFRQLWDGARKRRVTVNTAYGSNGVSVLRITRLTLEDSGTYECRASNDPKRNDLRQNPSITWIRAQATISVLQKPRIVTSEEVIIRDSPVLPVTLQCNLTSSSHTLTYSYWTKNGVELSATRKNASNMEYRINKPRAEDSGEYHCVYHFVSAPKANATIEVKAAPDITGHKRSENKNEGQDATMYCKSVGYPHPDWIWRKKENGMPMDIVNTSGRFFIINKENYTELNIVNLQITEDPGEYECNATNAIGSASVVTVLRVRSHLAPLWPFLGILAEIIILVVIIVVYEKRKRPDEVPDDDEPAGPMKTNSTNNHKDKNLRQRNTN

On to `C=CCN(C)CCCCCCOc1ccc(C(=O)c2ccc(Br)cc2)c(F)c1` [Ro488071], for which the “SILAC ratio, NPTN (Q9Y639)” value in experiment [1] (competitor 5 μM) turned out to be 1.3; in experiment [1] (competitor 50 μM), 3.0. The results for the “SILAC ratio, PTGS2 (P35354)” value in experiment [2] (competitor 5 μM) and in experiment [2] (competitor 50 μM) were 2.5 and 3.3, respectively. Moreover, the “SILAC ratio, LPCAT3 (Q6P1A2)” value in experiment [3] (competitor 5 μM) was determined as 1.3; in experiment [3] (competitor 50 μM), 2.7. The “SILAC ratio, SEC11A (P67812)” value in experiment [4] (competitor 5 μM) turned out to be 1.5; in experiment [4] (competitor 50 μM) it was 3.3. Further, the “SILAC ratio, ERMP1 (Q7Z2K6)” value amounted to 1.4 in experiment [5] (competitor 5 μM) and 3.2 in experiment [5] (competitor 50 μM).
Turning to `O=C(/C=C/c1cccnc1)NCCCCC1CCN(C(=O)c2ccccc2)CC1` [FK-866, reference compound], in experiment [1] (competitor 25 μM), the “SILAC ratio, NPTN (Q9Y639)” value is listed as 1.4. Moreover, the “SILAC ratio, PTGS2 (P35354)” value in experiment [2] (competitor 25 μM) amounted to 1.9. Further, the “SILAC ratio, LPCAT3 (Q6P1A2)” value in experiment [3] (competitor 25 μM) worked out at 3.3. The “SILAC ratio, SEC11A (P67812)” value in experiment [4] (competitor 25 μM) was determined as 1.2. Moreover, the “SILAC ratio, ERMP1 (Q7Z2K6)” value in experiment [5] (competitor 25 μM) came to 1.6.
